From patent US10690672B2, “Methods for breast cancer treatment” (GEORGE MASON UNIVERSITY, priority 2015, dated 2020)

Tests used:
[1] = system: breast cancer; assay: Bayesian analysis (MCMC simulation on I-SPY 2 data): probability of superiority to control and of Phase III success; format: in vivo, human
Description: Bayesian analysis was completed using the MCMC simulation based on I-SPY 2 data with the following model: pCR˜HR+HER2+biomarker+treatment+treatment*HR+treatment*HER2+treatment*biomarker. No multiple comparison adjustments were applied. The Bayesian analytical engine developed by Don Berry (Yee et al J Clin Oncol. 2012 Dec. 20; 30(36):4584-6), is a mathematical approach that evaluates the clinical performance of a drug (in this case, neratinib) in both the treatment arm (in this case tumor shrinkage estimates by size changes observed by MRI), coupled with complete pathological response (pCR) as measured as the final response determinant, and the response of the predicate therapy in the control arm. This evaluation determined success of a given therapy for a Phase III trial, and in this case, it was determined that phosphorylation of EGFR at Y1173 was not only statistically significant at predicting or assessing response to neratinib in all patients regardless of hormone receptor levels and HER2 levels (HER2+, HER2− and HR+ and HR−), but when patients with high levels of phosphorylated EGFR (Y1173) were added to the HR−/HER2+ subgroup, the prevalence of ‘biomarker-positive’ patients increased by 50%, while increasing the predicted probability of Phase III success to 90%. Moreover, when EGFR Y1173 was used as a single marker, a statistically significant increase in Phase III success was determined for all patients compared to HER2+/HR− status as measured by immunohistochemical methods. (93% vs 87%).

[2] = system: breast cancer; assay: I-SPY 2 TRIAL: pathological complete response (pCR) to neratinib plus standard chemotherapy vs concurrent control
Description: Subjects providing samples (pre-treatment biopsies) for studies described herein were characterized based on measurement of estrogen/hormone receptor (HR) and HER2 (c-erbB2), and were described by HER2−/HR−. HER2+/HR+. HER2+/HR−, HER2−/HR+ phenotypes. Response to treatment was determined by the amount of tumor shrinkage and a lack of appreciable tumor evident at surgery. A response of tumor shrinkage and/or lack of tumor when examined (such as at surgery) is referred to herein as “complete pathological response” (pCR), and has recently been deemed by the US FDA as an appropriate clinical endpoint for therapeutic approval. Neratinib is a therapeutic agent with a mechanism of action that is as a tyrosine kinase inhibitor that binds to and inhibits c-erbB2 and EGFR protein activity and the respective linked downstream pathways. […] Methods described herein may comprise obtaining measurements of the amounts proteins from a subject sample using a protein array technology developed by the inventors, and is referred to herein as “reverse phase protein microarray” (RPPA). This microarray allows for quantitative measurement of the amount of proteins and/or phosphorylated proteins in the tumor or cancerous cells from pretreatment sample, for example from biopsy specimens of women with Stage II/III breast cancer.
This example tested the hypothesis that the response to the pan-ERBB inhibitor, neratinib, was predicted by pre-treatment HER2-EGFR signaling. […] All patients received at least standard chemotherapy (which was comprised of 12 weekly cycles of paclitaxel (a taxane) therapy followed by 4 cycles of doxorubicin/cyclophosphamide (AC) therapy). For HER2+ patients, neratinib was administered in place of trastuzumab, and all HER2+ control arm patients received chemotherapy plus trastuzumab. 18 HER family signaling proteins were evaluated as biomarkers of neratinib response using reverse phase protein microarray (RPMA) data from pre-treatment laser capture microdissection (LCM) purified tumor epithelium.
Eighteen (18) protein/phosphoproteins biomarkers relating to HER family signaling were evaluated: AKT S473, AKT T308, EGFR, EGFR Y1068, EGFR Y1148, EGFR Y1173, EGFR Y992, ERBB2, ERBB2 Y1248, ERBB3 total, ERBB3 Y1289, ERK1/2 T202/Y204, Heregulin, mTOR, mTOR S2448, PI3K p85 Y458/p55 Y199, PTEN S380, and SHC Y317. This study assessed association between biomarker and response in the neratinib and control arms alone (likelihood ratio test), and relative performance between arms (biomarker×treatment interaction) using a logistic model. Analysis was also performed adjusting for HR/HER2 status.

Structure (SMILES): CCOc1cc2ncc(C#N)c(Nc3ccc(OCc4ccccn4)c(Cl)c3)c2cc1NC(=O)/C=C/CN(C)C [Neratinib]
- Prob > CTRL (probability of Neratinib superiority to control) ([1]; EGFR Y1173 High): 0.99
- Prob Ph III Success ([1]; EGFR Y1173 High): 0.93
- probability of Phase III success ([1]; EGFR Y1173 used as a single marker, all patients): 93%
- probability of Phase III success ([1]; HER2+/HR− status by immunohistochemical methods): 87%
- Prob > CTRL (probability of Neratinib superiority to control) ([1]; HR−/HER2+): 0.97
- Prob Ph III Success ([1]; HR−/HER2+): 0.87
- Prob > CTRL (probability of Neratinib superiority to control) ([1]; HR−/HER2+ AND EGFR Y1173 High): 0.99
- Prob Ph III Success ([1]; HR−/HER2+ AND EGFR Y1173 High): 0.95
- Prob > CTRL (probability of Neratinib superiority to control) ([1]; HR−/HER2+ OR EGFR Y1173 High): 0.99
- Prob Ph III Success ([1]; HR−/HER2+ OR EGFR Y1173 High): 0.9
- predicted probability of Phase III success ([1]; patients with high phosphorylated EGFR (Y1173) added to the HR−/HER2+ subgroup): 90%
- OR associated with treatment (pCR) ([2]; EGFR Y1173 High patients added to the graduating HR−/HER2+ subset): 3.2
- odds ratio (OR) of pCR between EGFR Y1173 groups in the N relative to control arm ([2]; EGFR Y1173 High vs Low, neratinib arm relative to control arm): 10.1
- clinical response ([2]; HER2+/HR− subtype): statistically significant clinical response
- pCR rate ([2]; HR−/HER2+ patients, EGFR Y1173 High, neratinib arm): 12/18 (67%)
- pCR rate ([2]; HR−/HER2+ patients, EGFR Y1173 Low, neratinib arm (neratinib in place of trastuzumab + paclitaxel then AC)): 0/4 (0%)
- OR associated with treatment (pCR) ([2]; HR−/HER2+ signature): 2.1
- trial outcome (graduation) ([2]; I-SPY 2 TRIAL, HR−/HER2+ signature): graduated
- pCR rate ([2]; Not HR−/HER2+ patients, EGFR Y1173 High, neratinib arm): 24/57 (42%)
- pCR rate ([2]; Not HR−/HER2+ patients, EGFR Y1173 Low, neratinib arm): 3/27 (11%)
- pCR by subtype ([2]; regardless of HER2/HR status): pCR was observed in every subtype
